{
  "source": "patent US20170014375A1",
  "about": "“PHARMACEUTICAL COMPOSITION COMPRISING EFFECTIVE DOSE OF POMIFERIN FOR TREATING CANCERS” (Macau University of Science and Technology, priority 2015, published 2017)",
  "assay_type_in_all_cases": "cell-based",
  "key": {"[1]": {"test_system": "HeLa (human cervical cancer) cells", "test": "MTT cytotoxicity assay, HeLa", "details": "72 h, 3 days, read-out: Means of IC50", "experimental": "Pomiferin is dissolved in DMSO at a final concentration of 100 mmol/L and stored at −20° C. Cytotoxicity is assessed using the 3-(4,5-dimethylthiazol-2-yl)-2,5-diphenyltetrazolium bromide assay. 4000-8000 HeLa (human cervical cancer), MCF-7 (human breast cancer), HepG2 and Hep3B (human liver cancer), H1299 and A549 (human lung cancer), LNCap (human prostate cancer) and LLC-1 (mouse Lewis lung carcinoma) cells are seeded on 96-well plates per well. After overnight pre-incubation, the cells are exposed to different concentrations of pomiferin ([…]) for 3 days. Subsequently, 10 μL of MTT reagents is added to each well and incubated at 37° C. for 4 hours followed by the addition of 100 μL solubilization buffer (10% SDS in 0.01 mol/L HCl) and overnight incubation. Absorbance at 585 nm is determined from each well the next day. The percentage of cell viability is calculated using the following formula: Cell viability (%)=Cells number treated/Cells number DMSO control×100. Data are obtained from three independent experiments."}, "[2]": {"test_system": "caspase-3 deficient (caspase 3KO) mouse embryonic fibroblasts", "test": "MTT cytotoxicity assay, caspase 3KO MEFs", "details": "Fibroblast, 72 h, 3 days, read-out: Means of IC50", "experimental": "(§1) The test compound of pomiferin is dissolved in DMSO at a final concentration of 100 mmol/L and stored at −20° C. Cytotoxicity is assessed using the 3-(4,5-dimethylthiazol-2-yl)-2,5-diphenyltetrazolium bromide assay as previously described^29. 2500 of caspase wild-type (caspase WT), caspase-3 deficient (caspase 3KO), caspase-7 deficient (caspase 7KO), caspase-3/-7 deficient (caspase 3/7 DKO), caspase-8 deficient (caspase 8KO), Bax-Bak wild-type (Bak-Bak WT) and Bax-Bak double knock out (Bak-Bak DKO) mouse embryonic fibroblasts (MEFs) are seeded on 96-well plates per well. After overnight pre-incubation, the cells are exposed to different concentrations of pomiferin (namely 100, 50, 25, 12.5, 6.25, 3.125, 1.5625, 0.78, 0.39, 0.195, 0.079, 0.039 μmol/L) for 3 days. Subsequently, 10 μL of MTT reagents is added to each well and incubated at 37° C. for 4 hours, followed by the addition of 100 μL solubilization buffer (10% SDS in 0.01 mol/L HCl) and overnight incubation. Absorbance at 585 nm is determined from each well on the following day. The percentage of cell viability is calculated using the following formula: Cell viability (%)=Cells numbertreated/Cells numberDMSO control×100. Data is obtained from three independent experiments."}, "[3]": {"test_system": "caspase-7 deficient (caspase 7KO) mouse embryonic fibroblasts", "test": "MTT cytotoxicity assay, caspase 7KO MEFs", "details": "Fibroblast, 72 h, 3 days, read-out: Means of IC50", "experimental": "as §1"}, "[4]": {"test_system": "caspase-3/-7 deficient (caspase 3/7 DKO) mouse embryonic fibroblasts", "test": "MTT cytotoxicity assay, caspase 3/7 DKO MEFs", "details": "Fibroblast, 72 h, 3 days, read-out: Means of IC50", "experimental": "as §1"}, "[5]": {"test_system": "HCT-116 p53−/− isogenic colon cancer cells", "test": "MTT cytotoxicity assay, HCT116 p53−/−", "details": "Homo sapiens, HCT-116, 72 h, HCT116 p53−/− (p53-deficient), 3 days, read-out: Means of IC50", "experimental": "as §1, with “4000” for “2500”, “drug-resistant HCT-116 p53+/+, HCT-116 p53−/−” for “caspase wild-type (caspase WT), caspase-3 deficient (caspase 3KO), caspase-7 deficient (caspase 7KO), caspase-3/-7 deficient (caspase 3/7 DKO), caspase-8 deficient (caspase 8KO), Bax-Bak wild-type (Bak-Bak WT)”, “HCT-116 p53−/− isogenic colon cancer cells” for “Bax-Bak double knock out (Bak-Bak DKO) mouse embryonic fibroblasts (MEFs)”, “[…])” for “μmol/L)”"}, "[6]": {"test_system": "Atg7 wild-type (Atg7+/+) mouse embryonic fibroblasts", "test": "Endogenous autophagic LC3 puncta, Atg7 wild-type MEFs", "details": "2 μM, FIG. 6A", "experimental": "Endogenous LC3 puncta formation is quantified as previously described^2. In brief, both Atg7 wild-type and deficient mouse embryonic fibroblasts (MEFs) grown on coverslips in a 6-well plate are treated with indicated concentrations of pomiferin. Both Atg7 wild-type and deficient mouse embryonic fibroblasts are then fixed in 4% paraformaldehyde for 20 minutes at room temperature and then rinsed with PBS. After washing with PBS, the cells are then incubated with anti-LC3 (1:200) in TBST (100 mM Tris HCl, pH 7.5, 150 mM NaCl, 0.05% Tween 20 and 5% BSA) overnight at 4. After washing with PBS, the cells are incubated with anti-mouse secondary antibody (TRITC) 1:200 in TBST containing 5% BSA at 37 for 1 hrs in the dark. The coverslips are then mounted with FluorSave™ mounting media (Calbiochem, San Diego, Calif., USA) for fluorescence imaging and localization of LC3 autophagosomes are captured under the API Delta Vision Live-cell Imaging System (Applied Precision Inc., GE Healthcare Company, Washington, USA). To quantify for autophagy, the percentage of cells with punctate TRITC-LC3 fluorescence is calculated by counting the number of the cells with punctate TRITC-LC3 fluorescence in TRITC-positive cells. A minimum of 150 cells from 3 randomly selected fields is scored."}, "[7]": {"test_system": "Atg7 deficient (Atg7−/−) mouse embryonic fibroblasts", "test": "Annexin V/PI flow cytometry cell death, Atg7−/− MEFs", "details": "2 μM, 24 h, FIG. 6B", "experimental": "Cell viability is measured using an annexin V staining kit (BD Biosciences, San Jose, Calif., USA). Briefly, Atg7 wild-type (Atg7+/+ or Atg7-wt) and Atg7 deficient (Atg7−/− or Atg7-ko) mouse embryonic fibroblasts (MEFs) are treated with the 2 μM pomiferin for 24 h. Cells are then harvested and analysed by multiparametric flow cytometry using FITC-Annexin V and Propidium iodide staining (BD Biosciences, San Jose, Calif., USA) according to the manufacturer's instructions. Flow cytometry is then carried out using a FACSCalibur flow cytometer (BD Biosciences, San Jose, Calif., USA). Data acquisition and analysis is performed with CellQuest (BD Biosciences, San Jose, Calif., USA). Data are obtained from three independent experiments."}},
  "data": [
    {"smiles": "CC(C)=CCc1c2c(c3occ(-c4ccc(O)c(O)c4)c(=O)c3c1O)C=CC(C)(C)O2", "note": "[pomiferin]", "values": [
      {"measurement": "IC50", "setting": "[1]", "value": 7.36, "unit": "µM"},
      {"measurement": "IC50", "setting": "[2]", "value": 2.13, "unit": "µM"},
      {"measurement": "IC50", "setting": "[3]", "value": 3.95, "unit": "µM"},
      {"measurement": "IC50", "setting": "[4]", "value": 2.21, "unit": "µM"},
      {"measurement": "IC50", "setting": "[5]", "value": 6.12, "unit": "µM"},
      {"measurement": "TRITC-LC3 puncta formation", "setting": "[6]", "value": "induce TRITC-LC3 puncta formation"},
      {"measurement": "cell death (in words)", "setting": "[7]", "value": "not in autophagy deficient cells"}
    ]}
  ]
}
